pEC50: −log10 of the molar value.
Molecular target: RheoSwitch® (CHO-K1_RS-1 cells, firefly Luciferase reporter) (Choristoneura fumiferana, UniProt O77240)
Assay: in vitro gene switch assay (fLUC Luciferase expression, potency screen)
Assay type: cell-based
Settings: read-out: fLUC assay EC50, 24 hours with compound, 25 μM to 2.5 pM, figure in parentheses after a value not defined
Source text: Gene switch assays are disclosed, e.g., in U.S. Pat. Nos. 8,076,517; 7,456,315; 7,304,161; and 6,258,603.
CHO-K1 cells were stably transfected with a plasmid (RS-1, FIG. 1) coding for firefly Luciferase (fLUC) under the control of the RheoSwitch® resulting in the stable cell line CHO-K1_RS-1. A master cell bank was created containing approximately 100 vials at 5×10^6 cells per vial. One vial of CHO-K1_RS-1 was thawed and cultured for two weeks prior to each in vitro potency screening.
Twenty-four (24) hours prior to treatment with the control and test compounds the CHO-K1_RS-1 cells were seeded into white-opaque 384-well cell culture plates at 3,600 cells per well in 30 μl of culture medium. The cells were incubated in a humidified CO2 incubator at 37° C. until compound treatment.
Compounds were prepared at 25 mM in 100% dry DMSO and stored at room temperature in sealed 1 ml tubes prior to subsequent dilution and assay. On the day of cell treatment the tubes containing the control and test compounds were sorted and the ligands transferred to a 96-well polypropylene plate for subsequent dilution. The compounds were diluted in 100% dry DMSO in an 8-point, 10-fold dilution series ranging from 25 mM to 2.5 nM using the Biomek FX automated liquid handler.
The diluted compounds were then transferred to each well of 384-well polypropylene plate in quadruplicate resulting in a single 384-well plate with four replicates of each compound dilution in a different quadrant of the plate. Each well on the 384-well plate received 20 μl of diluted compound. The 384-well plates containing diluted compound and the plates containing cells in culture were loaded onto the Biomek FX and 30 nl of compound was delivered to each well containing cells using a 384-pin V&P Scientific Pin Tool. The resulting 1000-fold dilution (30 nl to 30 μl) generated a final dosing range of 25 μM to 2.5 pM in 0.1% DMSO. Two replicate plates were produced to supply a dedicated plate for the Luciferase expression assay and the APH cell viability assay.
The cells were incubated with the compound for 24 hours in a humidified CO2 incubator at 37° C. Following incubation, the cells were assayed for Luciferase expression (fLUC assay) using the Steady Glo assay from Promega. Cells were equilibrated to room temperature for 15 minutes prior to reagent addition. Thirty micro liters (30 μl) of assay reagent was added to each well of the 384-well plate using the Biomek FX. The reagent was incubated with the cells for 10-120 minutes prior to reading on a Molecular Devices Spectramax L luminometer. The assay reagents were prepared as per the manufacturer's instructions.
The Luciferase expression data was normalized to the baseline signal from cells treated with DMSO alone. The ratio of signal from treated cells to vehicle-treated cells was plotted and non-linear regress was performed using Graph Pad Prism software. EC50, (log)EC50 and Hill slope data was generated. Reporter gene expression, e.g., luciferase expression, serves as a proxy for the expression of a gene of interest. See, e.g., US 2009/0123441 and WO 2011/119773.

Sequence of RheoSwitch® (CHO-K1_RS-1 cells, firefly Luciferase reporter) (O77240 1-513): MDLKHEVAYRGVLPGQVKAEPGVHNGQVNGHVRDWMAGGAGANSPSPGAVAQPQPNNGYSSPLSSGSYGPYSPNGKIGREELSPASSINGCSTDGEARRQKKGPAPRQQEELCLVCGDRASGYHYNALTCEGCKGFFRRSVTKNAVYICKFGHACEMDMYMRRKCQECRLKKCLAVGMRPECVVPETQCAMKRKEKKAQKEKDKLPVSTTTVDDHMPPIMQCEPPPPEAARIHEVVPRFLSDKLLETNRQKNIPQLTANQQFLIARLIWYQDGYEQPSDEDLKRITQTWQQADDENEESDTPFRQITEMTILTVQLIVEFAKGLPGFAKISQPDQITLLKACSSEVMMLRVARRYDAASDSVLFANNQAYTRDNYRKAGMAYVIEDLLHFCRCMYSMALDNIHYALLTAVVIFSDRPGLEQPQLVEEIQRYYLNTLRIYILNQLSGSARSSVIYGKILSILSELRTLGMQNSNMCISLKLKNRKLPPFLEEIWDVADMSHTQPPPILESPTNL

First: CCC(N(NC(=O)c1ccc2c(c1)B(O)OC2)C(=O)c1cc(C)cc(C)c1)C(C)(C)C (racemic) [Cpd. No. 51]
Second: CCC[C@@H](N(NC(=O)c1ccc(B(O)O)cc1)C(=O)c1cc(C)cc(C)c1)C(C)(C)C [Cpd. No. 8]
The pEC50 of the first is 0.63 log units lower: 6.36 for the first, 6.99 for the second. The second is the more potent here.

Compared with `CCC(CF)N(NC(=O)c1ccc2c(c1C)OCCOB2O)C(=O)c1cc(C)cc(C)c1` (racemic) [Cpd. No. 82], `Cc1cc(C)cc(C(=O)N(NC(=O)c2ccc3c(c2C)OCCOB3O)C(c2ccccc2)C(C)(C)C)c1` (racemic) [Cpd. No. 83, N′-(2,2-dimethyl-1-phenylpropyl)-N′-(3,5-dimethylbenzoyl)-1-hydroxy-6-methyl-3,4-dihydro-1H-benzo[c][1,5,2]dioxaborepine-7-carbohydrazide] is 1.60 log units higher in pEC50: 5.58 for the first, 7.18 for the second. The second is the more potent here.

First: CCC(c1ccccc1)N(NC(=O)c1ccc(B(O)O)cc1F)C(=O)c1cc(C)cc(C)c1 (racemic) [compound 18]
Second: CCC[C@@H](N(NC(=O)c1cccc(B(O)O)c1F)C(=O)c1cc(C)cc(C)c1)C(C)(C)C [Cpd. No. 6]
The pEC50 of the first is 0.34 log units lower: 6.69 for the first, 7.03 for the second. The second is the more potent here.

First: CCC(c1ccccc1)N(NC(=O)c1ccc(B(O)O)cc1F)C(=O)c1cc(C)cc(C)c1 (racemic) [compound 19]
Second: CCC[C@@H](N(NC(=O)c1c(F)cc(B(O)O)cc1F)C(=O)c1cc(C)cc(C)c1)C(C)(C)C [Cpd. No. 24, (R)-(4-(2-(3,5-dimethylbenzoyl)-2-(2,2-dimethylhexan-3-yl)hydrazinecarbonyl)-3,5-difluorophenyl)boronic acid]
The pEC50 of the first is 0.48 log units lower: 6.59 for the first, 7.07 for the second.

`CCC(N(NC(=O)c1cccc(OC)c1C)C(=O)c1cccc(B(O)O)c1)C(C)(C)C` (racemic) [compound 32] and `CCC(N(NC(=O)c1cccc(OC)c1C)C(=O)c1cc(F)cc(B(O)O)c1)C(C)(C)C` (racemic) [compound 35] are within 0.2 log units of each other in pEC50: 5.54 for the first, 5.59 for the second.

Compared with `CCC(N(NC(=O)c1cccc(OC)c1C)C(=O)c1cc(B(O)O)cc([N+](=O)[O-])c1)C(C)(C)C` (racemic) [compound 36], `CC[C@@H](N(NC(=O)c1cccc(OC)c1C)C(=O)c1cc(C)cc(B(O)O)c1)C(C)(C)C` [Cpd. No. 33, (R)-(3-(1-(2,2-dimethylpentan-3-yl)-2-(3-methoxy-2-methylbenzoyl)hydrazinecarbonyl)-5-methylphenyl)boronic acid] is higher in pEC50: under 4.60 for the first, 6.72 for the second.

`CCC(N(NC(=O)c1cccc(OC)c1C)C(=O)c1cc(OC)cc(B(O)O)c1)C(C)(C)C` (racemic) [compound 37] and `CC[C@@H](N(NC(=O)c1ccc(B(O)O)c(OCCOC)c1C)C(=O)c1cc(C)cc(C)c1)C(C)(C)C` [Cpd. No. 26, (R)-(4-(2-(3,5-dimethylbenzoyl)-2-(2,2-dimethylpentan-3-yl)hydrazinecarbonyl)-2-(2-methoxyethoxy)-3-methylphenyl)boronic acid] are within 0.2 log units of each other in pEC50: 5.68 for the first, 5.78 for the second.

Compared with `CCCC(N(NC(=O)c1cccc(B2OC(C)(C)C(C)(C)O2)c1C)C(=O)c1cccc(B2OC(C)(C)C(C)(C)O2)c1C)C(C)(C)C` (racemic) [compound 41], `CCCC(N(NC(=O)c1cccc(B2OC(C)(C)C(C)(C)O2)c1C)C(=O)c1cc(OC)ccc1OC)C(C)(C)C` (racemic) [compound 48] is 0.20 log units lower in pEC50: about 4.85 for the first, 4.65 for the second.

First: CCCC(N(NC(=O)c1cccc(B2OC(C)(C)C(C)(C)O2)c1C)C(=O)c1cc(C)cc(C)c1)C(C)(C)C (racemic) [compound 44]
Second: CCC(N(NC(=O)c1cccc(B2OC(C)(C)C(C)(C)O2)c1C)C(=O)c1cc(OC)c(C)c(OC)c1)C(C)(C)C (racemic) [compound 47]
The pEC50 of the first is 0.81 log units higher: 6.60 for the first, 5.79 for the second. The first is the more potent here.

`Cc1cc(C)cc(C(=O)N(NC(=O)c2cccc(B(O)O)c2Cl)C(C)(C)C)c1` [Cpd. No. 3] and `Cc1cc(C)cc(C(=O)N(NC(=O)c2ccc(B(O)O)c(F)c2)C(C)(C)C)c1` [Cpd. No. 23, (4-(2-(tert-butyl)-2-(3,5-dimethylbenzoyl) hydrazinecarbonyl)-2-fluorophenyl)boronic acid] are within 0.2 log units of each other in pEC50: 5.78 for the first, 5.75 for the second.

`Cc1cc(C)cc(C(=O)N(NC(=O)c2ccc(B(O)O)cc2)C(C)(C)C)c1` [Cpd. No. 7] and `Cc1cc(C)cc(C(=O)N(NC(=O)c2c(F)cc(B(O)O)cc2F)C(C)(C)C)c1` [Cpd. No. 25, (4-(2-(tert-butyl)-2-(3,5-dimethylbenzoyl) hydrazinecarbonyl)-3,5-difluorophenyl)boronic acid] are within 0.2 log units of each other in pEC50: 6.00 for the first, 6.10 for the second.

Going from `CCC[C@@H](N(NC(=O)c1ccc(CCCB(O)O)c(OC)c1C)C(=O)c1cc(C)cc(C)c1)C(C)(C)C` [Cpd. No. 27, (R)-(3-(4-(2-(3,5-dimethylbenzoyl)-2-(2,2-dimethylhexan-3-yl)hydrazinecarbonyl)-2-methoxy-3-methyl-phenyl)propyl)boronic acid] to `CCC[C@@H](N(NC(=O)c1ccc(CCCB(O)O)c(OC(F)F)c1C)C(=O)c1cc(C)cc(C)c1)C(C)(C)C` [Cpd. No. 28], the pEC50 rises from 6.57 to 7.24 (0.67 log units). The second is the more potent here.

First: CCCCB1OCc2ccc(C(=O)NN(C(=O)c3ccccc3)C(C)(C)C)c(F)c21 [Cpd. No. 64, N′-benzoyl-N′-(tert-butyl)-1-butyl-7-fluoro-1,3-dihydrobenzo[c][1,2]oxaborole-6-carbohydrazide]
Second: Cc1cc(C)cc(C(=O)N(NC(=O)c2ccc3c(c2F)COB3O)C(C)(C)C)c1 [Cpd. No. 65, N′-(tert-butyl)-N′-(3,5-dimethylbenzoyl)-4-fluoro-1-hydroxy-1,3-dihydrobenzo[c][1,2]oxaborole-5-carbohydrazide]
The pEC50 of the first is lower: under 4.60 for the first, 5.50 for the second.

First: [2H]C([2H])([2H])c1cc(C(=O)N(NC(=O)c2ccc3c(c2F)COB3O)C(C)(C)C)cc(C([2H])([2H])[2H])c1 [Cpd. No. 66, N′-(3,5-bis(methyl-d3)benzoyl)-N′-(tert-butyl)-4-fluoro-1-hydroxy-1,3-dihydrobenzo[c][1,2]oxaborole-5-carbohydrazide]
Second: Cc1cc(C)cc(C(=O)N(NC(=O)c2ccc3c(c2C)OB(O)CCC3)C(C)(C)C)c1 [Cpd. No. 69]
The pEC50 of the first is 1.20 log units lower: 5.49 for the first, 6.69 for the second. The second is the more potent here.

Molecule `CCC[C@@H](N(NC(=O)c1ccc2c(c1C)OB(O)CCC2)C(=O)c1cc(C)cc(C)c1)C(C)(C)C` [Cpd. No. 70, (R)—N′-(3,5-dimethylbenzoyl)-N′-(2,2-dimethylhexan-3-yl)-2-hydroxy-9-methyl-2,3,4,5-tetrahydrobenzo[f][1,2]oxaborepine-8-carbohydrazide] has a pEC50 of 7.39.

Same assay, conditions: read-out: fLUC assay EC50 Run 1, 24 hours with compound, Run 1

`CC[C@@H](N(NC(=O)c1ccc(B(O)O)cc1F)C(=O)c1cc(C)cc(C)c1)C(C)(C)C` [Cpd. No. 85, (R)-(4-(2-(3,5-dimethylbenzoyl)-2-(2,2-dimethylpentan-3-yl)hydrazine-1-carbonyl)-3-fluorophenyl)boronic acid] and `CC[C@@H](N(NC(=O)c1ccc(COC)c(B(O)O)c1F)C(=O)c1cc(C)cc(C)c1)C(C)(C)C` [Cpd. No. 86, (R)-(3-(2-(3,5-dimethylbenzoyl)-2-(2,2-dimethylpentan-3-yl)hydrazine-1-carbonyl)-2-fluoro-6-(methoxymethyl)phenyl)boronic acid] are within 0.2 log units of each other in pEC50: 7.16 for the first, 7.31 for the second.

First: CC[C@@H](N(NC(=O)c1ccc(COC)c(B2OC(C)(C)C(C)(C)O2)c1F)C(=O)c1cc(C)cc(C)c1)C(C)(C)C [Cpd. No. 87, (R)-N′-(3,5-dimethylbenzoyl)-N′-(2,2 dimethylpentan-3-yl)-2-fluoro-4-(methoxymethyl)-3-(4,4,5,5-tetramethyl-1,3,2-dioxaborolan-2-yl)benzohydrazide]
Second: COCc1ccc(C(=O)NN(C(=O)c2cc(C)cc(C)c2)C(C)(C)C)c(F)c1B(O)O [Cpd. No. 88, (3-(2-(tert-butyl)-2-(3,5-dimethylbenzoyl)hydrazine-1-carbonyl)-2-fluoro-6-(methoxymethyl)phenyl)boronic acid]
The pEC50 of the first is 1.14 log units higher: 7.32 for the first, 6.18 for the second. The first is the more potent here.

`Cc1cc(C)cc(C(=O)N(NC(=O)c2ccc3c(c2F)COB3O)C(c2ccccc2)C(C)(C)C)c1` (stereo not drawn) [Cpd. No. 89, N′-(2,2-dimethyl-1-phenylpropyl)-N′-(3,5-dimethylbenzoyl)-4-fluoro-1-hydroxy-1,3-dihydrobenzo[c][1,2]oxaborole-5-carbohydrazide] gave a pEC50 of about 6.44.

Same assay, conditions: read-out: fLUC assay EC50 Run 2, 24 hours with compound, Run 2

`CC[C@@H](N(NC(=O)c1ccc(B(O)O)cc1F)C(=O)c1cc(C)cc(C)c1)C(C)(C)C` [Cpd. No. 85, (R)-(4-(2-(3,5-dimethylbenzoyl)-2-(2,2-dimethylpentan-3-yl)hydrazine-1-carbonyl)-3-fluorophenyl)boronic acid] and `CC[C@@H](N(NC(=O)c1ccc(COC)c(B(O)O)c1F)C(=O)c1cc(C)cc(C)c1)C(C)(C)C` [Cpd. No. 86, (R)-(3-(2-(3,5-dimethylbenzoyl)-2-(2,2-dimethylpentan-3-yl)hydrazine-1-carbonyl)-2-fluoro-6-(methoxymethyl)phenyl)boronic acid] are within 0.2 log units of each other in pEC50: 7.18 for the first, 7.13 for the second.

Going from `CC[C@@H](N(NC(=O)c1ccc(COC)c(B2OC(C)(C)C(C)(C)O2)c1F)C(=O)c1cc(C)cc(C)c1)C(C)(C)C` [Cpd. No. 87, (R)-N′-(3,5-dimethylbenzoyl)-N′-(2,2 dimethylpentan-3-yl)-2-fluoro-4-(methoxymethyl)-3-(4,4,5,5-tetramethyl-1,3,2-dioxaborolan-2-yl)benzohydrazide] to `COCc1ccc(C(=O)NN(C(=O)c2cc(C)cc(C)c2)C(C)(C)C)c(F)c1B(O)O` [Cpd. No. 88, (3-(2-(tert-butyl)-2-(3,5-dimethylbenzoyl)hydrazine-1-carbonyl)-2-fluoro-6-(methoxymethyl)phenyl)boronic acid], the pEC50 falls from 7.02 to 6.08 (0.94 log units).

For `Cc1cc(C)cc(C(=O)N(NC(=O)c2ccc3c(c2F)COB3O)C(c2ccccc2)C(C)(C)C)c1` (stereo not drawn) [Cpd. No. 89, N′-(2,2-dimethyl-1-phenylpropyl)-N′-(3,5-dimethylbenzoyl)-4-fluoro-1-hydroxy-1,3-dihydrobenzo[c][1,2]oxaborole-5-carbohydrazide], the pEC50 was about 6.52.

From patent US9127024B2 (Intrexon Corporation, priority 2013, dated 2015)
